Data: patent EP4782431A1 (Suzhou Merna Therapeutics Co. Ltd, priority 2023, dated 2025)

Tests used:
[1] = tested on: rat models with a hand-foot skin reaction; test: rat models with a hand-foot skin reaction; format: in vivo, SD rats
Experimental: After adaptive feeding for one week, SD rats (with a body weight of approximately 200 g) were randomly divided into groups with balanced body weight, with 12 rats in each group. Modeling drugs (including sorafenib, erlotinib, afatinib, and osimertinib) were respectively dissolved in a solution containing 5% of DMSO, 45% of PEG400, and 50% of H2O, and the modeling drugs were diluted to required concentrations and then administered once daily by gavage at doses shown in Table 3. After administration by gavage for 1 hour, 0.05 g of ointments containing different mass proportions of test compounds were evenly applied to left paws of the rats, a blank matrix ointment was applied to right paws of the rats to serve as a self-control, and no ointment was applied to the rats in a blank control group. After drug application, four limbs were continuously immobilized for 2 hours, then wiped with clean water to remove the residual drugs, removed from immobilization, and restored to free movement. The modeling drugs, the blank matrix ointment, and the ointments containing the test compounds were all administered once daily. After continuous administration for 30 days, the rats were euthanized, and paw plantar skin tissues were collected, fixed in 10% neutral formalin, […]. The ointments for the test compounds were prepared by mixing the compounds, white beeswax, white petrolatum, and light liquid paraffin in specific ratios (weight ratios of 3 ointments were respectively 1:18:58:23, 3:18:57:22, and 10:20:40:30). The blank matrix ointment was prepared by mixing white beeswax, white petrolatum, and light liquid paraffin in a specific ratio (weight ratio of 18:60:22).
Tissue staining: After dewaxing and rehydration, the paw plantar skin tissue sections of the above rats were stained in a hematoxylin solution for several minutes, cleaned, and placed in 1% acid alcohol for soaking until the sections faded to light blue-red. After cleaning with running water for 5 minutes, the sections were stained with eosin for 2-3 minutes, cleaned to remove excess dyes, dehydrated, then permeabilized by adding xylene for several minutes, and sealed and fixed with a neutral resin. The stratum corneum was observed under an optical microscope, and the thickness of the epidermal stratum corneum was measured using Dmetrix software.
Immunohistochemical staining: After dewaxing and hydration, the paw plantar skin tissue sections of the above rats were incubated with 3% H2O2 at room temperature for 30 minutes and blocked with 10% goat serum for 30 minutes after antigen retrieval. A KRT1 antibody (Abcam, ab93652) and a Loricrin antibody (Abcam, ab183646) were added dropwise, the sections were incubated overnight at 4°C, and an HRP secondary antibody (ZSGB-BIO, PV-6001) and a DAB kit (ZSG-BIO, ZLI9017) were added for color development. The sections were re-stained with hematoxylin, cleaned, and sealed and fixed with a neutral resin, and the expression amounts of KRT1 and Loricrin were observed under an optical microscope.
An incidence rate calculation method involves a proportion of animals in each group meeting the above criteria for determining successful modeling, that is, incidence rate = (number of successfully modeled rats/total number of rats in the group)*100%. […]

[2] = stability of crystal forms (XRPD, HPLC, color); format: physicochemical; settings: for Crystal form: XRPD
Experimental: A 2θ scanning angle of the sample was 3°-40°, a scanning step size was 0.02°, and a scanning time per step was 0.12 s/step. An optical tube voltage and a current were 40 kV and 40 mA, respectively. During sample preparation, an appropriate amount of the sample was placed on a sample tray and flattened with a tool such as a glass slide to ensure a smooth and even surface.
An Agilent 1260 infinityII binary pump was used for solubility and stability testing.
The stability of samples under these conditions was detected by XRPD and HPLC, and whether the samples had color changes was observed.
(§1) A certain amount of the crystal form C of the compound of formula (I) was weighed and placed in an open container at 25°C/92.5%RH for 1 week. A certain amount of the crystal form C of the compound of formula (I) was weighed and placed in a closed container at 60°C for 1 week. The stability of samples under these conditions was detected by XRPD and HPLC, and whether the samples had color changes was observed. Table 16 Stability test results of the crystal form C of the compound of formula (I)
as §1, with “form D” for “form C”, “Table 17” for “Table 16”
as §1, with “form E” for “form C”, “Table 18” for “Table 16”

[3] = hygroscopicity by dynamic vapor sorption (DVS); format: physicochemical; settings: for 1st adsorption Percentage of weight change / 1st desorption Percentage of weight change / 2nd adsorption Percentage of weight change / 2nd desorption Percentage of weight change: 40-0-95-0-40%RH, 240 min per step
Experimental: ProUmid SPSx-1µ Advance was used for analysis of a sample. The sample to be tested was approximately in an amount of 5-50 mg. A temperature in a test chamber was controlled at 25±1°C, a relative humidity cycle was […], a step size was 10%, an equilibrium time was 240 minutes per step, and mass data was recorded every 20 seconds.
A DVS cycle was 40-0-95-0-40%RH. XRPD detection was performed on samples after the DVS testing to determine whether crystal form transformation occurred.

[4] = modeling drug alone by gavage once daily 30 days (Sorafenib 100, Erlotinib 70, Afatinib 50, Osimertinib 60 mg/kg), no test compound

CN(C)C/C=C/C(=O)Nc1cc2c(Nc3ccc(F)c(Cl)c3)ncnc2cc1O[C@H]1CCOC1 [Afatinib, afatinib, reference compound]
successful modeling rates for the hand-foot skin reaction ([1]; SD rats, once daily by gavage: sorafenib 100, erlotinib 70, afatinib 50, osimertinib 60 mg/kg): 66.7% | KRT1 and Loricrin in tissues ([1]; immunohistochemical staining, successfully modeled rats, modeling drug alone): significantly increased | Incidence rate Left paw [1, 4]: 8/12 (66.7%) | Incidence rate Right paw [1, 4]: 8/12 (66.7%) | stratum corneum thickness of the paw plantar skin ([1]; successfully modeled rats, modeling drug alone, vs normal rats): significantly higher than that of normal rats

NC(=O)[C@H]1CCCc2c1[nH]c1ccc(Cl)cc21 [Crystal form A, (S)-6-chloro-2,3,4,9-tetrahydro-1H-carbazole-carboxamide]
Color ([2]; 25°C/92.5%RH, open, 1 week): No change | Degradation (%) ([2]; 25°C/92.5%RH, open, 1 week): None | Purity (%) ([2]; 25°C/92.5%RH, open, 1 week): 99.8% | Color ([2]; 60°C, closed, 1 week): No change | Degradation (%) ([2]; 60°C, closed, 1 week): None | Purity (%) ([2]; 60°C, closed, 1 week): 99.8% | Purity (%) ([2]; Initial): 99.8% | Hygroscopicity Conclusion ([3]; DVS at 25°C, Table 15): Slight hygroscopicity | 1st adsorption Percentage of weight change ([3]; Relative humidity 0% at 25°C): 0.3% | 1st desorption Percentage of weight change ([3]; Relative humidity 0% at 25°C): 0.3% | 2nd adsorption Percentage of weight change ([3]; Relative humidity 0% at 25°C): 0.2% | 2nd desorption Percentage of weight change ([3]; Relative humidity 0% at 25°C): 0.2% | 1st adsorption Percentage of weight change ([3]; Relative humidity 10% at 25°C): 0.1% | 1st desorption Percentage of weight change ([3]; Relative humidity 10% at 25°C): 0.3% | 2nd adsorption Percentage of weight change ([3]; Relative humidity 10% at 25°C): 0.3% | 2nd desorption Percentage of weight change ([3]; Relative humidity 10% at 25°C): 0.3% | 1st adsorption Percentage of weight change ([3]; Relative humidity 20% at 25°C): 0.3% | 1st desorption Percentage of weight change ([3]; Relative humidity 20% at 25°C): 0.1% | 2nd adsorption Percentage of weight change ([3]; Relative humidity 20% at 25°C): 0.3% | 2nd desorption Percentage of weight change ([3]; Relative humidity 20% at 25°C): 0.2% | 1st adsorption Percentage of weight change ([3]; Relative humidity 30% at 25°C): 0.3% | 1st desorption Percentage of weight change ([3]; Relative humidity 30% at 25°C): 0.1% | 2nd adsorption Percentage of weight change ([3]; Relative humidity 30% at 25°C): 0.1% | 2nd desorption Percentage of weight change ([3]; Relative humidity 30% at 25°C): 0.3% | 1st adsorption Percentage of weight change ([3]; Relative humidity 40% at 25°C): 0.1% | 1st desorption Percentage of weight change ([3]; Relative humidity 40% at 25°C): 0.3% | 2nd adsorption Percentage of weight change ([3]; Relative humidity 40% at 25°C): 0.3% | 2nd desorption Percentage of weight change ([3]; Relative humidity 40% at 25°C): 0.4% | 1st adsorption Percentage of weight change ([3]; Relative humidity 50% at 25°C): 0.0% | 2nd desorption Percentage of weight change ([3]; Relative humidity 50% at 25°C): 0.1% | 1st adsorption Percentage of weight change ([3]; Relative humidity 60% at 25°C): 0.4% | 2nd desorption Percentage of weight change ([3]; Relative humidity 60% at 25°C): 0.4% | 1st adsorption Percentage of weight change ([3]; Relative humidity 70% at 25°C): 0.4% | 2nd desorption Percentage of weight change ([3]; Relative humidity 70% at 25°C): 0.4% | 1st adsorption Percentage of weight change ([3]; Relative humidity 80% at 25°C): 0.5% | 2nd desorption Percentage of weight change ([3]; Relative humidity 80% at 25°C): 0.2% | 1st adsorption Percentage of weight change ([3]; Relative humidity 90% at 25°C): 0.5% | 2nd desorption Percentage of weight change ([3]; Relative humidity 90% at 25°C): 0.6% | 1st adsorption Percentage of weight change ([3]; Relative humidity 95% at 25°C): 0.7% | 2nd desorption Percentage of weight change ([3]; Relative humidity 95% at 25°C): 0.7% | XRPD after DVS testing ([3]; after DVS cycle 40-0-95-0-40%RH at 25°C): Crystal form A | water absorption ([3]; from 40% to 95%RH, 25°C): 0.6%

NC(=O)[C@H]1CCCc2c1[nH]c1ccc(Cl)cc21 [Crystal form C, (S)-6-chloro-2,3,4,9-tetrahydro-1H-carbazole-carboxamide]
Color ([2]; 25°C/92.5%RH, open, 1 week): No change | Degradation (%) ([2]; 25°C/92.5%RH, open, 1 week): 0.6% | Purity (%) ([2]; 25°C/92.5%RH, open, 1 week): 99.1% | Color ([2]; 60°C, closed, 1 week): Changed | Degradation (%) ([2]; 60°C, closed, 1 week): 0.1% | Purity (%) ([2]; 60°C, closed, 1 week): 99.6% | Purity (%) ([2]; Initial): 99.7%

NC(=O)[C@H]1CCCc2c1[nH]c1ccc(Cl)cc21 [Crystal form D, (S)-6-chloro-2,3,4,9-tetrahydro-1H-carbazole-carboxamide]
Color ([2]; 25°C/92.5%RH, open, 1 week): No change | Degradation (%) ([2]; 25°C/92.5%RH, open, 1 week): 0.6% | Purity (%) ([2]; 25°C/92.5%RH, open, 1 week): 99.2% | Degradation (%) ([2]; 25°C/92.5%RH, open, 1 week, listed as crystal form D): 0.6% | Color ([2]; 60°C, closed, 1 week): Changed | Degradation (%) ([2]; 60°C, closed, 1 week): 1.1% | Purity (%) ([2]; 60°C, closed, 1 week): 98.7% | Crystal form ([2]; 60°C, closed, 1 week): D+F | Degradation (%) ([2]; 60°C, closed, 1 week, listed as crystal form D): 1.1% | Purity (%) ([2]; Initial): 99.8%

NC(=O)[C@H]1CCCc2c1[nH]c1ccc(Cl)cc21 [Crystal form E, (S)-6-chloro-2,3,4,9-tetrahydro-1H-carbazole-carboxamide]
Color ([2]; 25°C/92.5%RH, open, 1 week): No change | Degradation (%) ([2]; 25°C/92.5%RH, open, 1 week): 0.2% | Purity (%) ([2]; 25°C/92.5%RH, open, 1 week): 99.2% | Degradation (%) ([2]; 25°C/92.5%RH, open, 1 week, listed as crystal form E): 0.2% | Color ([2]; 60°C, closed, 1 week): Changed | Degradation (%) ([2]; 60°C, closed, 1 week): 3.0% | Purity (%) ([2]; 60°C, closed, 1 week): 96.4% | Crystal form ([2]; 60°C, closed, 1 week): E+F | Degradation (%) ([2]; 60°C, closed, 1 week, listed as crystal form E): 3.0% | Purity (%) ([2]; Initial): 99.4%

C#Cc1cccc(Nc2ncnc3cc(OCCOC)c(OCCOC)cc23)c1 [Erlotinib, erlotinib, reference compound]
KRT1 and Loricrin in tissues ([1]; rat, in vivo): significantly increased | stratum corneum thickness of the paw plantar skin ([1]; rat, in vivo): significantly higher than that of normal rats
